Data reported in publication PMC4503722, “Novel Phenotypic Outcomes Identified for a Public Collection of Approved Drugs from a Publicly Accessible Panel of Assays” (PLoS ONE, 2015).
Where two headings read alike, the source gives them in different places.

Key:
hKDR = molecular target: T1, hKDR (Homo sapiens, UniProt P35968); experiment: Cerep LANCE kinase assay hKDR (S1 assay 32); format: biochemical; conditions: for IC50: read-out: KDR
T1 construct: purchased Cerep (LANCE kinase assay platform, contract assay)
T1 sequence (P35968 20-1356): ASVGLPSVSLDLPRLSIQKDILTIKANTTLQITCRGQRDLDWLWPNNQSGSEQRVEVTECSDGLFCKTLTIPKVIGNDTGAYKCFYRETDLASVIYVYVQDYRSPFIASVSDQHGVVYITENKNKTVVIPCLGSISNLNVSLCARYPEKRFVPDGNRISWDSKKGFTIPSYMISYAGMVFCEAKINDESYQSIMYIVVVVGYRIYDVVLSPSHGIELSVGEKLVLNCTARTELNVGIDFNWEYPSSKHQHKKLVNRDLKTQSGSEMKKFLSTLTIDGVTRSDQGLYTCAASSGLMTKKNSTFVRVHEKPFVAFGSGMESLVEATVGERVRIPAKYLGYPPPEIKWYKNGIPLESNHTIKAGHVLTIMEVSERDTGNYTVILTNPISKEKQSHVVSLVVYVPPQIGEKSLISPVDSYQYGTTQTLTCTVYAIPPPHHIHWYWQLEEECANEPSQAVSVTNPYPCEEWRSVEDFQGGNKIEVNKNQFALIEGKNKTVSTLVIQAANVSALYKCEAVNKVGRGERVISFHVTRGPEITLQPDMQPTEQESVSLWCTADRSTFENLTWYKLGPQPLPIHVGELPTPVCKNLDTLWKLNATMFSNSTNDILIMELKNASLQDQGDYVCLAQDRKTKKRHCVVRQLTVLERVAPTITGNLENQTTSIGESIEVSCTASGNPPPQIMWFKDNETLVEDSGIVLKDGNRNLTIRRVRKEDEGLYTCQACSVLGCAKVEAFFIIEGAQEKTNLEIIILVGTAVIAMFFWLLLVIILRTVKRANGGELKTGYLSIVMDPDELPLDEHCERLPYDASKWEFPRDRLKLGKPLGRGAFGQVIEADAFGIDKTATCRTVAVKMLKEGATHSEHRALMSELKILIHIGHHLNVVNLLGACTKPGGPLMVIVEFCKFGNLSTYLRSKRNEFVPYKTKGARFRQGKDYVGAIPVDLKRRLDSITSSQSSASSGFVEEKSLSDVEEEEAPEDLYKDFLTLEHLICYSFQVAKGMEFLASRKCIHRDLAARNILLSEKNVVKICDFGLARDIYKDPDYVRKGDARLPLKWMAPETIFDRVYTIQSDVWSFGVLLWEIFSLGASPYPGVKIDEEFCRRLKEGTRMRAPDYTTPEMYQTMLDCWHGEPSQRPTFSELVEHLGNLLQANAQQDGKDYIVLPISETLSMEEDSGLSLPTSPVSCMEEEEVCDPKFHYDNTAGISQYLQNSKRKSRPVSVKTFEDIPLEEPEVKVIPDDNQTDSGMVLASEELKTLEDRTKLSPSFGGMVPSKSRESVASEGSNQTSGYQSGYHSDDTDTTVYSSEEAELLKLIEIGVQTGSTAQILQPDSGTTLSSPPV

INS-1E cells = experiment: cells; format: cell-based, rat
hFLT3 = molecular target: T2, hFLT3 (Homo sapiens, UniProt P36888); experiment: Cerep LANCE kinase assay hFLT3 (S1 assay 35); format: biochemical; conditions: for IC50: read-out: FLT3
T2 construct: purchased Cerep (LANCE kinase assay platform, contract assay)
T2 sequence (P36888 27-993): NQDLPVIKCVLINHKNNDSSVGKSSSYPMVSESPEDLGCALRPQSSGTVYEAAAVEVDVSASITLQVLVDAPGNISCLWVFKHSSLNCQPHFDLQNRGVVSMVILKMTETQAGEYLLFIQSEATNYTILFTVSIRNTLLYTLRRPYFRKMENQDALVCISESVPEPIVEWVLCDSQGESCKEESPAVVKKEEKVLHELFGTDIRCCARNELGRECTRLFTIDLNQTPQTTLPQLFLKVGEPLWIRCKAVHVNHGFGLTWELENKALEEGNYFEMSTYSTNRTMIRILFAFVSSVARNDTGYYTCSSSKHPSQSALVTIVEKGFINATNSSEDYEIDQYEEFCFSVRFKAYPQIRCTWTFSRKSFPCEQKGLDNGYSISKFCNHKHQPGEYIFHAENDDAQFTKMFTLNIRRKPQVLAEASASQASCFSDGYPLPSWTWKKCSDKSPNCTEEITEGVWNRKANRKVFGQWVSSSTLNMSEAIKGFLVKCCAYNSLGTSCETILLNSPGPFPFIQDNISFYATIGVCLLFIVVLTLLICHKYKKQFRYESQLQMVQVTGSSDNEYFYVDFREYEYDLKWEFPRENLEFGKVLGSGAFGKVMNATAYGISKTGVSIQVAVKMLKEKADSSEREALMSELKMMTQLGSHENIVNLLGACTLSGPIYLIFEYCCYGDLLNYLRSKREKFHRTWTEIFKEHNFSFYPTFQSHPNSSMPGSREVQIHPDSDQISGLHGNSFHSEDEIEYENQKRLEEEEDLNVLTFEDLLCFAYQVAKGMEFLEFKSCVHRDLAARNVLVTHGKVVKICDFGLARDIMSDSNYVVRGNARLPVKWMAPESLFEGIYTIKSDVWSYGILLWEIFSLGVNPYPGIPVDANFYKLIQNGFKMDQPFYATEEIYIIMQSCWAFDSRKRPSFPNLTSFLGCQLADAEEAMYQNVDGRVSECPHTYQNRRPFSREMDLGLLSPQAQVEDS

HeLa cells = experiment: cells; format: cell-based; conditions: HeLa, HeLa, read-out: CellCycle G2/M
[1] = test system: endothelial tube formation in co-cultures of ECFCs and ADSCs treated with VEGF; experiment: cells; format: cell-based, human
SW480 = experiment: cells; format: cell-based
[2] = test system: HCT116 cells treated with a GSK3β inhibitor; experiment: cells; format: cell-based
HCT116 = experiment: cells; format: cell-based
hJAK2 = molecular target: T3, hJAK2 (Homo sapiens, UniProt O60674); experiment: Cerep LANCE kinase assay hJAK2 (S1 assay 33); format: biochemical; conditions: for IC50: read-out: JAK2
T3 construct: purchased Cerep (LANCE kinase assay platform, contract assay)
T3 sequence (O60674 whole entry): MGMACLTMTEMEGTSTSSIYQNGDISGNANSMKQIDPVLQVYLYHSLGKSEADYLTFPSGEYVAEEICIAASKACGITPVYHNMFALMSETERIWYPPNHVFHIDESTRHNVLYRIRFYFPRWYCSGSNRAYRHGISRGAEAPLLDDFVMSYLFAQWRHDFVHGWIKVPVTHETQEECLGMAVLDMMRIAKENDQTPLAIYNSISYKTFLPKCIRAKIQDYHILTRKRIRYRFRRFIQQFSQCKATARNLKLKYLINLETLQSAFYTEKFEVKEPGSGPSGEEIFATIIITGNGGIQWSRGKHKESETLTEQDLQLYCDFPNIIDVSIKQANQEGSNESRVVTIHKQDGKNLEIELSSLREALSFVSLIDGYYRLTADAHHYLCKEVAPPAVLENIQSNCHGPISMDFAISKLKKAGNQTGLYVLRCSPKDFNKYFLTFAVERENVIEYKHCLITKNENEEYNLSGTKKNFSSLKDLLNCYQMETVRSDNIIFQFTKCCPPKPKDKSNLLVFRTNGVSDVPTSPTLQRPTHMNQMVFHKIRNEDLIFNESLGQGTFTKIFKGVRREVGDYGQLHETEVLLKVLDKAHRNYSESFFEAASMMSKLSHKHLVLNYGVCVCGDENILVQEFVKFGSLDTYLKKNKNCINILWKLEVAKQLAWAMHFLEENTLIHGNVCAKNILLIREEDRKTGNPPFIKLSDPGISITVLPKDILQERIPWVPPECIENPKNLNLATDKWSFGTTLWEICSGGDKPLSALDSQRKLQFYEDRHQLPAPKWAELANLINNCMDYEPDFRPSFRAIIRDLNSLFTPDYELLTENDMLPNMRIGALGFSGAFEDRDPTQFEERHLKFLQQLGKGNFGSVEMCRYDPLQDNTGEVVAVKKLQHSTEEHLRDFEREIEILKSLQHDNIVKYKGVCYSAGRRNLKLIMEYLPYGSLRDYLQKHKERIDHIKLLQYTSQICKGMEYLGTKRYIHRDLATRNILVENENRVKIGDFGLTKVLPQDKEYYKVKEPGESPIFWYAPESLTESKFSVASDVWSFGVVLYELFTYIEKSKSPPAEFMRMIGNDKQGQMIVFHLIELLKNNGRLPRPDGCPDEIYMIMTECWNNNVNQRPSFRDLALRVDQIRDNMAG

hGSK3b = molecular target: T4, hGSK3b (Homo sapiens, UniProt P49841); experiment: Cerep LANCE kinase assay hGSK3b (S1 assay 34); format: biochemical; conditions: for IC50: read-out: GSK3b
T4 construct: purchased Cerep (LANCE kinase assay platform, contract assay)
T4 sequence (P49841 whole entry): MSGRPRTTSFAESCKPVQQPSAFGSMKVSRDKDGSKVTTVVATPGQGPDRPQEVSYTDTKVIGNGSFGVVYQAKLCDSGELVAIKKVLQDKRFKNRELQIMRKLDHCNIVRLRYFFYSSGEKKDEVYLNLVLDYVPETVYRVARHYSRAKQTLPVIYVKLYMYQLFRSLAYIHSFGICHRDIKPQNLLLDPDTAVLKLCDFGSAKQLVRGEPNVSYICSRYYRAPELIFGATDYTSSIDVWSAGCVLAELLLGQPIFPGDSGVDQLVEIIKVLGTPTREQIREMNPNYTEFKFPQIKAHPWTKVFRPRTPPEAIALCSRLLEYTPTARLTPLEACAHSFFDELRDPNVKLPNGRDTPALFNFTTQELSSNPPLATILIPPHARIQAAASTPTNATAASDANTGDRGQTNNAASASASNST

NCI-H716 cells = experiment: cells; format: cell-based, Human
hp70S6K1 (RPS6KB1) = molecular target: T5, hp70S6K1 (RPS6KB1) (Homo sapiens, UniProt P23443); experiment: Cerep LANCE kinase assay hp70S6K1 (S1 assay 31); format: biochemical; conditions: for IC50: read-out: p70S6K1
T5 construct: purchased Cerep (LANCE kinase assay platform, contract assay)
T5 sequence (P23443 whole entry): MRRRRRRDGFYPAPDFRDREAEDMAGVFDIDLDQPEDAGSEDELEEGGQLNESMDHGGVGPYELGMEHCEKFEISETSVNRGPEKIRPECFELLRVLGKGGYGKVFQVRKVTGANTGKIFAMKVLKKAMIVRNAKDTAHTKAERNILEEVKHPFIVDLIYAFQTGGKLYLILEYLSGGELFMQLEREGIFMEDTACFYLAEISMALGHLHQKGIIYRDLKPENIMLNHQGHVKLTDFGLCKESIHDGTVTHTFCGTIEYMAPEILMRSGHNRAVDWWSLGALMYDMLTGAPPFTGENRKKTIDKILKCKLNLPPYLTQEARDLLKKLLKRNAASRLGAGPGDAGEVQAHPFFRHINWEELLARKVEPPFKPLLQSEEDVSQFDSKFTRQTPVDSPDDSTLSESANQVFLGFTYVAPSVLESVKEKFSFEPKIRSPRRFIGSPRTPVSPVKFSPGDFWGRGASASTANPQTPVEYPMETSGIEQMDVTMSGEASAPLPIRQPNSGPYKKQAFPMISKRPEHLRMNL

[3] = test system: nuclear β-catenin in C2C12 cells; experiment: cells; format: cell-based
DLD-1 = experiment: cells; format: cell-based
SNU-C1 = experiment: cells; format: cell-based; conditions: Homo sapiens
HT-29 = experiment: cells; format: cell-based; conditions: Homo sapiens
RKO = experiment: cells; format: cell-based; conditions: Homo sapiens, RKO
Colo320 = experiment: cells; format: cell-based; conditions: Homo sapiens
[4] = Rattus norvegicus, IC50 / EC50, INS-1E, read-out: Insulin Secretion
[5] = Homo sapiens, IC50 / EC50, endothelial tube area, ADSC/ECFC co-culture, read-out: Anti-Angiogenesis
[6] = Homo sapiens, SW480, basal, read-out: Basal_Viability ATP SW480
[7] = Homo sapiens, HCT-116, read-out: GSK3b inh pretreated_Viability ATP HCT116
[8] = Homo sapiens, HCT-116, basal, read-out: Basal_Viability ATP HCT116
[9] = Homo sapiens, IC50 / EC50, NCI-H716, read-out: GLP 1 Secretion
[10] = Homo sapiens, DLD-1, basal, read-out: Basal_Viability ATP DLD-1
[11] = Rattus norvegicus, INS-1E, read-out: Ins. sec. EC50
[12] = Rattus norvegicus, INS-1E, read-out: Insulin Secretion
[13] = Homo sapiens, read-out: Anti-Angio IC50
[14] = Homo sapiens, SW480, 72 h, read-out: SW480 viab. IC50
[15] = Homo sapiens, SW480, read-out: Basal_Viability ATP SW480
[16] = Homo sapiens, HCT-116, 72 h, read-out: HCT-116 (GSK3β) viab. IC50
[17] = Homo sapiens, HCT-116, 72 h, read-out: HCT-116 viab. IC50
[18] = Homo sapiens, HCT-116, read-out: Basal_Viability ATP HCT116
[19] = Homo sapiens, NCI-H716, read-out: GLP1 sec. EC50
[20] = Mus musculus, C2C12, read-out: Wnt pot. EC50
[21] = Homo sapiens, DLD-1, 72 h, read-out: DLD-1 viab. IC50
[22] = Homo sapiens, DLD-1, read-out: Basal_Viability ATP DLD-1
[23] = Homo sapiens, read-out: Anti-Angiogenesis
[24] = Homo sapiens, NCI-H716, read-out: GLP 1 Secretion
[25] = Mus musculus, C2C12, read-out: Wnt Pathway
[26] = SNU-C1, read-out: Basal_Viability ATP SNU-C1
[27] = HT-29, read-out: Basal_Viability ATP HT-29

Compound	IC50 (hKDR)	IC50 (hFLT3)	IC50 [2, 7]	IC50 (hJAK2)	IC50 (hGSK3b)	IC50 (hp70S6K1 (RPS6KB1))	EC50 (INS-1E cells; [11])	EC50 (INS-1E cells; [12])	EC50 (HeLa cells; Homo sapiens)	IC50 (SW480; [14])	IC50 (SW480; [15])	IC50 [2, 16]	IC50 (HCT116; [17])	IC50 (HCT116; [18])	EC50 (NCI-H716 cells; [19])	IC50 (DLD-1; [21])	IC50 (DLD-1; [22])	IC50 [1, 23]	EC50 (NCI-H716 cells; [24])	also measured
CC[C@@]1(O)C(=O)OCc2c1cc1n(c2=O)Cc2c-1nc1ccccc1c2/C=N/OC(C)(C)C [Gimatecan]	> 20 µM	> 20 µM	0.0667 µM	> 20 µM	> 20 µM	> 20 µM	–	–	–	–	–	–	–	–	–	–	–	–	–	EC50 (INS-1E cells; [4]): > 10 µM; EC50 (HeLa cells; Homo sapiens, IC50 / EC50): > 10 µM; IC50 [1, 5]: 0.002 µM; IC50 (SW480; [6]): 0.222 µM; IC50 (HCT116; [8]): 0.0667 µM; EC50 (NCI-H716 cells; [9]): > 10 µM; EC50 ([3]; Mus musculus, C2C12, IC50 / EC50, C2C12 beta-catenin translocation, read-out: Wnt Pathway): 0.0032 µM; IC50 (DLD-1; [10]): 0.315 µM
CSc1ccc2c(c1)C(N1CCN(C)CC1)Cc1ccccc1S2 (stereo not drawn) [metitepine, reference compound]	> 20 µM	> 20 µM	4.57 µM	> 20 µM	> 20 µM	> 20 µM	2.9 µM	2.94 µM	> 10 µM	1.9 µM	1.9 µM	4.6 µM	3.8 µM	3.77 µM	> 10 µM	4.4 µM	4.39 µM	–	–	IC50 [1, 13]: > 10 µM; EC50 [3, 20]: > 20 µM
CCCCCCCCCCCCCCCCNc1ccc(C(=O)O)cc1 [cetaben sodium, sodium p-(hexadecylamino) benzoate, reference compound]	> 20 µM	> 20 µM	7.41 µM	> 20 µM	> 20 µM	> 20 µM	> 10 µM	–	> 10 µM	4.4 µM	4.39 µM	7.4 µM	> 20 µM	–	> 10 µM	10.6 µM	10.6 µM	0.367 µM	–	inhibition of KDR activity (in words) (hKDR): does not inhibit; inhibition of FLT3 activity (in words) (hFLT3): does not inhibit; inhibition of endothelial tube / cord formation (in words) [1]: uniquely inhibited endothelial cord formation; IC50 [1, 13]: 0.37 µM; inhibition of JAK2 activity (in words) (hJAK2): does not inhibit; inhibition of GSK3β activity (in words) (hGSK3b): does not inhibit; inhibition of RPS6KB1 activity (in words) (hp70S6K1 (RPS6KB1)): does not inhibit; EC50 [3, 20]: > 10 µM
COC(=O)c1nc(Cl)c(Cl)nc1N	–	–	–	–	–	–	–	–	–	–	–	–	–	–	–	–	–	–	–	IC50 (hKDR; kinase assay): > 20 µM; EC50 (INS-1E cells; S2 Table, module primary assay, 20 / 20.1 codes per legend, read-out: Insulin Secretion): > 10 µM; IC50 (hFLT3; kinase assay): 2.86 µM; EC50 (HeLa cells; S2 Table, 20 = no response at highest concentration): 0.511 µM; IC50 ([1]; read-out: Anti-Angiogenesis): 0.865 µM; IC50 (SW480; basal, SW480, read-out: Basal_Viability ATP SW480): 0.88 µM; IC50 ([2]; HCT116 pretreated with GSK3b inhibitor, read-out: GSK3b inh pretreated_Viability ATP HCT116): 0.296 µM; IC50 (HCT116; basal, HCT116, read-out: Basal_Viability ATP HCT116): 0.327 µM; IC50 (hJAK2; kinase assay): > 20 µM; IC50 (hGSK3b; kinase assay): > 20 µM; EC50 (NCI-H716 cells; S2 Table, module primary assay, 20 / 20.1 codes per legend, read-out: GLP 1 Secretion): > 10 µM; IC50 (hp70S6K1 (RPS6KB1); kinase assay): > 20 µM; EC50 ([3]; read-out: Wnt Pathway): 0.157 µM; IC50 (DLD-1; basal, DLD-1, read-out: Basal_Viability ATP DLD-1): 0.835 µM
Nc1ncnc2c1ncn2CCOCP(=O)(O)O [Adefovir]	> 20 µM	> 20 µM	0.584 µM	> 20 µM	> 20 µM	> 20 µM	–	> 10 µM	> 10 µM	–	2.77 µM	–	–	9.01 µM	–	–	2.68 µM	0.391 µM	> 10 µM	EC50 [3, 25]: 0.387 µM
CCCCCCCCCCCCCCCCCCNC(=O)OC1CCN(C(=O)OC[C@H](COC(=O)N(Cc2cccc[n+]2CC)C(=O)c2ccccc2OC)OC)CC1 [E-5880]	> 20 µM	> 20 µM	–	> 20 µM	> 20 µM	> 20 µM	–	–	–	–	–	–	–	–	–	–	–	–	–	EC50 (INS-1E cells; IC50 / EC50, INS-1E, read-out: Insulin Secretion): > 20 µM; EC50 (HeLa cells; IC50 / EC50): > 10 µM; IC50 ([1]; IC50 / EC50, endothelial tube area, ADSC/ECFC co-culture, read-out: Anti-Angiogenesis): 1.5 µM; IC50 (SW480; basal, read-out: Basal_Viability ATP SW480): 0.543 µM; IC50 ([2]; GSK3b inhibitor pretreated, read-out: GSK3b inh pretreated_Viability ATP HCT116): 4.42 µM; IC50 (HCT116; basal, read-out: Basal_Viability ATP HCT116): 4.11 µM; EC50 (NCI-H716 cells; IC50 / EC50, NCI-H716, read-out: GLP 1 Secretion): 9.52 µM; EC50 ([3]; IC50 / EC50, C2C12 beta-catenin translocation, read-out: Wnt Pathway): > 10 µM; IC50 (DLD-1; basal, read-out: Basal_Viability ATP DLD-1): 3.28 µM
COc1ccc(-c2nc3ccc(C4=NNC(=O)CC4C)cc3[nH]2)cc1 (stereo not drawn) [Pimobendan]	> 20 µM	5.13 µM	> 20 µM	> 20 µM	> 20 µM	> 20 µM	–	–	–	–	–	–	–	–	–	–	–	–	–	EC50 (INS-1E cells; [4]): > 10 µM; EC50 (HeLa cells; Homo sapiens, IC50 / EC50): > 10 µM; IC50 [1, 5]: 2.89 µM; IC50 (SW480; [6]): > 20 µM; IC50 (HCT116; [8]): 16 µM; EC50 (NCI-H716 cells; [9]): > 10 µM; IC50 (DLD-1; [10]): > 20 µM
CC(C)C[C@H](NC(=O)[C@H](Cc1ccccc1)NC(=O)c1cnccn1)B(O)O [bortezomib, reference compound]	> 20 µM	> 20 µM	0.00241 µM	> 20 µM	> 20 µM	> 20 µM	> 10 µM	–	> 10 µM	0.005 µM	0.00513 µM	0.002 µM	0.004 µM	0.00365 µM	> 10 µM	0.006 µM	0.00636 µM	–	–	IC50 (SNU-C1; SNU-C1, 72 h, read-out: SNU-C1 viab. IC50): 0.003 µM; IC50 (SNU-C1; [26]): 0.0032 µM; IC50 (HT-29; HT-29, 72 h, read-out: HT-29 viab. IC50): 0.003 µM; IC50 (HT-29; [27]): 0.00315 µM; IC50 (RKO; 72 h, read-out: RKO viab. IC50): 0.008 µM; IC50 (RKO; read-out: Basal_Viability ATP RKO): 0.0081 µM; IC50 (Colo320; COLO 320, 72 h, read-out: Colo320 viab. IC50): 2.8 µM
O=c1[nH]c(=O)n([C@H]2C[C@H](O)[C@@H](CO)O2)cc1C(F)(F)F [Trifluridine]	–	–	1.25 µM	–	–	–	–	> 10 µM	> 10 µM	–	> 20 µM	–	–	–	–	–	> 20 µM	–	> 10 µM	IC50 (hKDR; kinase assay): > 20 µM; IC50 (hFLT3; kinase assay): > 20 µM; IC50 (SNU-C1; [26]): > 20 µM; IC50 (HT-29; [27]): > 20 µM; IC50 (hJAK2; kinase assay): > 20 µM; IC50 (hGSK3b; kinase assay): > 20 µM; IC50 (hp70S6K1 (RPS6KB1); kinase assay): > 20 µM; IC50 (Colo320; COLO 320, read-out: Basal_Viability ATP Colo 320): > 20 µM
CCC1=C[C@@H]2CN(C1)Cc1c([nH]c3ccccc13)[C@@](C(=O)OC)(c1cc3c(cc1OC)N(C)[C@H]1[C@@](O)(C(=O)OC)[C@H](OC(C)=O)[C@]4(CC)C=CCN5CC[C@]31[C@@H]54)C2 [vinorelbine]	> 20 µM	> 20 µM	0.0667 µM	> 20 µM	> 20 µM	> 20 µM	–	> 10 µM	–	–	0.342 µM	–	–	0.0964 µM	–	–	0.214 µM	0.0055 µM	> 10 µM	EC50 [3, 25]: 0.0089 µM
